Earlier results in patent US12485291B2, “Method for treatment of cholangiocarcinoma with cold atmospheric plasma and folfirinox” (Jerome Canady Research Institute for Advanced Biological …, priority 2019, dated 2025).

Tested on: metastatic pancreatic cancer
Conditions: patients with metastatic pancreatic cancer

Nc1ccn([C@@H]2O[C@H](CO)[C@@H](O)C2(F)F)c(=O)n1 [gemcitabine]
overall survival: 6.8 months
